Data as given in PMC9257522, “Machine Learning for Discovery of New ADORA Modulators” (Frontiers in Pharmacology, 2022).
Entries after “also recorded” stand apart in the source; their conditions may differ.

What was measured:
A1AR = tested on: T1, A1AR; assay: PathHunter β-Arrestin assay (Eurofins/DiscoverX), agonist mode; assay type: cell-based; settings: maximum concentration 20 µM; normalized to control agonist CPA and vehicle
T1 construct: host or cells: A1AR-bla U2OS
Experimental: PathHunter cell lines were expanded from freezer stocks according to standard procedures. […] For agonist determination, cells were incubated with sample to induce response. Intermediate dilution of sample stocks was performed to generate 5X sample in assay buffer. […] Vehicle concentration was 1%. […] Microplates were read following signal generation with a PerkinElmer Envision™ instrument for chemiluminescent signal detection.
This parental cell line stably expresses a beta‐arrestin/TEV protease fusion protein and the beta‐lactamase reporter gene under the control of a UAS response element. […] We also used a secondary assay PathHunter® β-Arrestin assay, which monitors the activation of A1AR in a homogenous, non-imaging assay format using a technology developed by DiscoverX called Enzyme Fragment Complementation (EFC) with β-galactosidase (β-Gal) as the functional reporter.

human A3AR = molecular target: T2, human A3AR (Homo sapiens, UniProt P0DMS8); assay: Radioligand displacement binding, [125I]I-AB-MECA, HEK293 membranes; settings: 100 µM, mean ± standard error, three independent experiments
T2 sequence (P0DMS8 1-318): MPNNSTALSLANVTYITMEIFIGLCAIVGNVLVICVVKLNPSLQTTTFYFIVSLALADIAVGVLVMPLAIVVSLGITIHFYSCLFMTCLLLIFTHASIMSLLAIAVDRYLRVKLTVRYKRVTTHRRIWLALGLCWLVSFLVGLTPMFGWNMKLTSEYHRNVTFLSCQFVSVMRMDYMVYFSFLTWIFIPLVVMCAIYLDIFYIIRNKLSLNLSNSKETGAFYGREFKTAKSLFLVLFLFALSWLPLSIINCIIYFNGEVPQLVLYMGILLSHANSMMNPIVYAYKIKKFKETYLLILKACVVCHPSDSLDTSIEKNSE
Experimental: HEK293 cells stably expressing the human A1AR, A2AAR, A3AR were cultured in DMEM supplemented with 10% fetal bovine serum, 100 Units/ml penicillin, 100 µg/ml streptomycin, and 2 µmol/ml glutamine. To prepare cell membranes, cells were detached from culture plates by scraping into cold PBS and centrifuged at 250 g for 5 min. The pellets were resuspended in ice-cold PBS buffer (pH 7.4) and then homogenized. After homogenization and suspension, cells were centrifuged at 1,000 g for 10 min, and the pellet was discarded. The suspension was then re-centrifuged at 20,000 g for 60 min at 4°C. […] The aliquots of membrane preparations were stored at −80°C until the binding experiments. For displacement binding assays, membrane preparations (20 µg proteins/tube) were incubated at 25°C for 60 min with a final concentration of [^3H]DPCPX (0.5 nM), [^3H]ZM241385 (1.0 nM), […] [^125I]I-AB-MECA (0.1 nM) for A1AR, A2AAR, A3AR, respectively, in a mixture containing 50 µl of increasing concentrations of a test ligand in a total assay volume of 200 µl of 50 mM Tris HCl, pH 7.4, containing 10 mM MgCl2. Nonspecific binding was determined using 100 µM of XAC. The reaction was terminated by filtration with GF/B filters using a Brandel (Gaithersburg, MD) 24-channel harvester. Filters were placed in scintillation vials containing 5 ml of Hydrofluor scintillation buffer (National Diagnostics, Atlanta, GA) and counted using a Tricarb 2810TR liquid scintillation counter (PerkinElmer, Waltham, MA).

N#Cc1ccc(Oc2ccc3c(c2)COB3O)cc1 [Crisaborole]
activation of A1AR, PathHunter β-Arrestin assay (A1AR): no activation; also recorded: without activity; also recorded: no agonist activity
Inhibition of specific binding, % inhibition at 100 µM, A3 ([125I]I-AB-MECA) (human A3AR): No significant binding inhibition
inhibition at 100 µM (human A3AR; read-out: Inhibition of specific binding, % inhibition at 100 µM, A3 ([125I]I-AB-MECA)): 28.8 ± 16.3%
